Test results: PubChem BioAssay (NCI)
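Protocol summary: plate cells (96-well), add compound at 5 concentrations, incubate 48 h, interpolate endpoints linearly. At the GI50, growth is halved. TGI: total growth inhibition.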

Experiments:
Assay in all cases: NCI anticancer screen, dose series, 48 h
786-0 renal = tested on: 786-0 renal
A498 renal = tested on: A498 renal
A549 NSCLC = tested on: A549 NSCLC
ACHN renal = tested on: ACHN renal
CAKI-1 renal = tested on: CAKI-1 renal
CCRF-CEM leukemia = tested on: CCRF-CEM leukemia
COLO 205 colon = tested on: COLO 205 colon
DU-145 prostate = tested on: DU-145 prostate
EKVX NSCLC = tested on: EKVX NSCLC
HCC-2998 colon = tested on: HCC-2998 colon
HCT-116 colon = tested on: HCT-116 colon
HCT-15 colon = tested on: HCT-15 colon
HL-60(TB) leukemia = tested on: HL-60(TB) leukemia
HOP-62 NSCLC = tested on: HOP-62 NSCLC
HOP-92 NSCLC = tested on: HOP-92 NSCLC
HT29 colon = tested on: HT29 colon
IGROV1 ovarian = tested on: IGROV1 ovarian
K-562 leukemia = tested on: K-562 leukemia
KM12 colon = tested on: KM12 colon
LOX IMVI melanoma = tested on: LOX IMVI melanoma
M14 melanoma = tested on: M14 melanoma
MALME-3M melanoma = tested on: MALME-3M melanoma
MCF7 breast = tested on: MCF7 breast
MDA-MB-231 breast = tested on: MDA-MB-231 breast
MDA-MB-435 = tested on: MDA-MB-435
MOLT-4 leukemia = tested on: MOLT-4 leukemia
NCI-H226 lung = tested on: NCI-H226 lung
NCI-H23 lung = tested on: NCI-H23 lung

COc1cc(C2CC(c3ccc(SC)cc3)=NN2C(C)=O)cc(OC)c1OC (stereo unspecified)
GI50 (786-0 renal): 14.1 µM | TGI (786-0 renal): 70.4 µM | GI50 (A498 renal): 12.6 µM | TGI (A498 renal): 49.3 µM | GI50 (A549 NSCLC): 9.63 µM | TGI (A549 NSCLC): > 100 µM | GI50 (ACHN renal): 18.2 µM | TGI (ACHN renal): > 100 µM | GI50 (CAKI-1 renal): 7.11 µM | TGI (CAKI-1 renal): 70 µM | GI50 (CCRF-CEM leukemia): 9.49 µM | TGI (CCRF-CEM leukemia): > 100 µM | GI50 (COLO 205 colon): 5.38 µM | TGI (COLO 205 colon): 21.6 µM | GI50 (DU-145 prostate): 16.5 µM | TGI (DU-145 prostate): 50.6 µM | GI50 (EKVX NSCLC): 17.7 µM | TGI (EKVX NSCLC): > 100 µM | GI50 (HCC-2998 colon): 12.1 µM | TGI (HCC-2998 colon): 38.7 µM | GI50 (HCT-116 colon): 4.28 µM | TGI (HCT-116 colon): 21 µM | GI50 (HCT-15 colon): 5.09 µM | TGI (HCT-15 colon): > 100 µM | GI50 (HL-60(TB) leukemia): 2.68 µM | TGI (HL-60(TB) leukemia): 12.1 µM | GI50 (HOP-62 NSCLC): 16.1 µM | TGI (HOP-62 NSCLC): 66.3 µM | GI50 (HOP-92 NSCLC): 16 µM | TGI (HOP-92 NSCLC): 97.1 µM | GI50 (HT29 colon): 4.2 µM | TGI (HT29 colon): > 100 µM | GI50 (IGROV1 ovarian): 6.38 µM | TGI (IGROV1 ovarian): > 100 µM | GI50 (K-562 leukemia): 3.47 µM | TGI (K-562 leukemia): 20.8 µM | GI50 (KM12 colon): 3.89 µM | TGI (KM12 colon): 44.9 µM | GI50 (LOX IMVI melanoma): 7.1 µM | TGI (LOX IMVI melanoma): > 100 µM | GI50 (M14 melanoma): 3.91 µM | TGI (M14 melanoma): 38.4 µM | GI50 (MALME-3M melanoma): 53.6 µM | TGI (MALME-3M melanoma): > 100 µM | GI50 (MCF7 breast): 4.47 µM | TGI (MCF7 breast): 77.5 µM | GI50 (MDA-MB-231 breast): 20.1 µM | TGI (MDA-MB-231 breast): > 100 µM | GI50 (MDA-MB-435): 1.95 µM | TGI (MDA-MB-435): 5.55 µM | GI50 (MOLT-4 leukemia): 5.2 µM | TGI (MOLT-4 leukemia): > 100 µM | GI50 (NCI-H226 lung): 19.8 µM | TGI (NCI-H226 lung): 45.6 µM | GI50 (NCI-H23 lung): 24.3 µM | TGI (NCI-H23 lung): > 100 µM
